{"source": "patent US20130252813A1", "about": "“Herbicidal Compositions for Tolerant or Resistant Sugar Beet Crops” (Bayer CropScience AG, priority 1998, published 2013)", "type_in_all_cases": "in vivo", "key": {"transgenic sugar beet [1]": {"test_system": "transgenic sugar beet", "experiment": "Damage to transgenic sugar beet (field trial, Table 5)", "details": "application in the 3-5-leaf stage", "procedure": "(§1) Transgenic sugar beet plants with resistance to one or more herbicides (A) were grown together with typical weed plants in the open in 2×5 m plots under natural field conditions; alternatively, the weed population established naturally while the sugar beet plants grew. Treatment with the compositions according to the invention and, for control purposes, with separate application of the active ingredients of the components alone, was carried out under standard conditions with a plot sprayer at an application rate of 200-300 liters of water per hectare in parallel trials in accordance with the scheme of Table 1, i.e. pre-sowing/pre-emergence, […] or post-emergence at the early, medium or late stage.\n(§2) At 2, 4, 6 and 8 week intervals after application, the herbicidal activity of the active ingredients or active ingredient mixtures were scored visually by comparing the treated plots with untreated control plots. Damage and development of all aerial plant organs was recorded. The scoring was done using a percentage scale (100% activity=all plants dead; 50% activity=50% of the plants and green plant organs dead; 0% activity=no discernible effect=like control plot). The score values of in each case 4 plots were averaged."}, "Avena fatua": {"test_system": "Avena fatua", "experiment": "Herbicidal action and selectivity in sugar beet crop (field trial, Table 5)", "details": "application in the 3-5-leaf stage, scoring 4 weeks after application", "procedure": "as §1, §2"}, "Galium aparine [2]": {"test_system": "Galium aparine", "experiment": "Herbicidal action (field trial, Table 7)", "details": "application in the 4-5-leaf stage, scoring 26 days after application", "procedure": "as §1, §2"}, "transgenic sugar beet [3]": {"test_system": "transgenic sugar beet", "experiment": "Damage to transgenic sugar beet - field trial (Table 2)", "details": "application in 2-4-leaf stage", "procedure": "as §1, §2"}, "Setaria viridis [4]": {"test_system": "Setaria viridis", "experiment": "Herbicidal action in sugar beet - field trial (Table 2)", "details": "application in 2-4-leaf stage, scoring 3 weeks after application", "procedure": "as §1\n(§3) […] Damage and development of all aerial plant organs was recorded. The scoring was done using a percentage scale (100% activity=all plants dead; 50% activity=50% of the plants and green plant organs dead; 0% activity=no discernible effect=like control plot). The score values of in each case 4 plots were averaged."}, "transgenic sugar beet [5]": {"test_system": "transgenic sugar beet", "experiment": "Damage to transgenic sugar beet (greenhouse experiment, Table 3)", "set-up": "scale not given here", "details": "greenhouse Table 3, application in the 4-5-leaf stage"}, "Galium aparine [6]": {"test_system": "Galium aparine", "experiment": "Herbicidal action in sugar beet crop (greenhouse experiment, Table 3)", "details": "application in the 4-5-leaf stage, scoring 3 weeks after application", "description": "Seeds or rhizomes of monocotyledonous and dicotyledonous weeds are placed in sandy loam soil in cardboard pots, covered with soil and grown in the greenhouse under good growth conditions. […] The compositions according to the\nInvention, which are formulated as wettable powders or as emulsion concentrates, are sprayed at various dosages onto the green plant organs at an application rate of 600 to 800 l of water per ha (converted). After the experimental plants have remained in the greenhouse for approx. 3 to 4 weeks under optimal growth conditions, the effect of the preparations is scored visually in comparison with untreated controls. The compositions according to the invention also have a good herbicidal activity against a broad spectrum of economically Important grass weeds and broad-leaved weeds when applied post-emergence."}, "Setaria viridis [7]": {"test_system": "Setaria viridis", "experiment": "Herbicidal action (field trial, sequential treatment, Table 8)", "details": "dose 3500 g A.S./ha pre-emergence; scorings 22 days after application", "procedure": "as §1, §3"}, "Amaranthus retroflexus": {"test_system": "Amaranthus retroflexus", "experiment": "Herbicidal action (field trial, sequential treatment, Table 8)", "details": "dose 3500 g A.S./ha pre-emergence; scorings 22 days after application", "procedure": "as §1, §3"}, "Echinochloa crus-galli": {"test_system": "Echinochloa crus-galli", "experiment": "Herbicidal action and selectivity in sugar beet crop (field trial, Table 4)", "details": "application in 3-leaf stage, scoring 4 weeks after application", "procedure": "as §1, §2"}, "transgenic sugar beet [8]": {"test_system": "transgenic sugar beet", "experiment": "Damage to transgenic sugar beet (field trial, Table 4)", "details": "application in 3-leaf stage", "procedure": "as §1, §2"}}}
{"smiles": "CCOC(=O)C(C)Oc1ccc(Oc2nc3ccc(Cl)cc3o2)cc1", "note": "(racemic) [(B3.2), fenoxaprop-ethyl (rac.)]", "values": [{"measurement": "Damage to transgenic sugar beet", "setting": "transgenic sugar beet [1]; dose 15 g A.S./ha", "value": 0}, {"measurement": "Damage to transgenic sugar beet", "setting": "transgenic sugar beet [1]; dose 30 g A.S./ha", "value": 0}, {"measurement": "Damage to transgenic sugar beet", "setting": "transgenic sugar beet [1]; dose 60 g A.S./ha", "value": 0}, {"measurement": "Herbicidal action in % against Avena fatua", "setting": "Avena fatua; dose 15 g A.S./ha", "value": 20, "unit": "%"}, {"measurement": "Herbicidal action in % against Avena fatua", "setting": "Avena fatua; dose 30 g A.S./ha", "value": 60, "unit": "%"}, {"measurement": "Herbicidal action in % against Avena fatua", "setting": "Avena fatua; dose 60 g A.S./ha", "value": 85, "unit": "%"}]}
{"smiles": "CC(C)N.O=C(O)CNCP(=O)(O)O", "note": "[(A2.2), monoisopropylammonlum salt of glyphosate]", "values": [{"measurement": "Herbicidal action in % against Galium aparine", "setting": "Galium aparine [2]; dose 125 g A.S./ha", "value": 10, "unit": "%"}, {"measurement": "Herbicidal action in % against Galium aparine", "setting": "Galium aparine [2]; dose 250 g A.S./ha", "value": 40, "unit": "%"}, {"measurement": "Herbicidal action in % against Galium aparine", "setting": "Galium aparine [2]; dose 500 g A.S./ha", "value": 60, "unit": "%"}, {"measurement": "Herbicidal action in % against Galium aparine", "setting": "Galium aparine [2]; dose 1000 g A.S./ha", "value": 85, "unit": "%"}]}
{"smiles": "Cc1cccc(S(=O)(=O)NC(=O)Nc2nc(OCC(F)(F)F)nc(N(C)C)n2)c1C(=O)O", "note": "[(B1.3)]", "values": [{"measurement": "Damage to transgenic sugar beet", "setting": "transgenic sugar beet [3]; dose 8 g A.S./ha", "value": 0}, {"measurement": "Damage to transgenic sugar beet", "setting": "transgenic sugar beet [3]; dose 17 g A.S./ha", "value": 0}, {"measurement": "Herbicidal action in % against Setaria viridis", "setting": "Setaria viridis [4]; dose 8 g A.S./ha", "value": 0, "unit": "%"}, {"measurement": "Herbicidal action in % against Setaria viridis", "setting": "Setaria viridis [4]; dose 17 g A.S./ha", "value": 20, "unit": "%"}]}
{"smiles": "Cc1nnc(-c2ccccc2)c(=O)n1N", "note": "[(B1.4), 4-amino-4,5-dihydro-3-methyl-6-phenyl-1,2,4-triazin-5-one]", "values": [{"measurement": "Damage to transgenic sugar beet", "setting": "transgenic sugar beet [5]; dose 750 g A.S./ha", "value": 0}, {"measurement": "Damage to transgenic sugar beet", "setting": "transgenic sugar beet [5]; dose 1500 g A.S./ha", "value": 0}, {"measurement": "Damage to transgenic sugar beet", "setting": "transgenic sugar beet [5]; dose 3000 g A.S./ha", "value": 0}, {"measurement": "Herbicidal action in % against Galium aparine", "setting": "Galium aparine [6]; dose 750 g A.S./ha", "value": 5, "unit": "%"}, {"measurement": "Herbicidal action in % against Galium aparine", "setting": "Galium aparine [6]; dose 1500 g A.S./ha", "value": 5, "unit": "%"}, {"measurement": "Herbicidal action in % against Galium aparine", "setting": "Galium aparine [6]; dose 3000 g A.S./ha", "value": 5, "unit": "%"}, {"measurement": "Herbicidal action in % against Setaria viridis", "setting": "Setaria viridis [7]", "value": 20, "unit": "%"}, {"measurement": "Herbicidal action in % against Amaranthus retroflexus", "setting": "Amaranthus retroflexus", "value": 73, "unit": "%"}]}
{"smiles": "COC(=O)Nc1cccc(NC(=O)Oc2cccc(C)c2)c1", "note": "[(B2.2), 3-methylphenyl N-[3-(methoxycarbonylamino)phenyl]carbamate]", "values": [{"measurement": "Herbicidal action in % against Galium aparine", "setting": "Galium aparine [2]; dose 500 g A.S./ha", "value": 20, "unit": "%"}, {"measurement": "Herbicidal action in % against Galium aparine", "setting": "Galium aparine [2]; dose 1000 g A.S./ha", "value": 30, "unit": "%"}, {"measurement": "Herbicidal action in % against Galium aparine", "setting": "Galium aparine [2]; dose 2000 g A.S./ha", "value": 30, "unit": "%"}, {"measurement": "Damage to transgenic sugar beet", "setting": "transgenic sugar beet [5]; dose 500 g A.S./ha", "value": 0}, {"measurement": "Damage to transgenic sugar beet", "setting": "transgenic sugar beet [5]; dose 1000 g A.S./ha", "value": 0}, {"measurement": "Damage to transgenic sugar beet", "setting": "transgenic sugar beet [5]; dose 2000 g A.S./ha", "value": 0}, {"measurement": "Herbicidal action in % against Galium aparine", "setting": "Galium aparine [6]; dose 500 g A.S./ha", "value": 20, "unit": "%"}, {"measurement": "Herbicidal action in % against Galium aparine", "setting": "Galium aparine [6]; dose 1000 g A.S./ha", "value": 30, "unit": "%"}, {"measurement": "Herbicidal action in % against Galium aparine", "setting": "Galium aparine [6]; dose 2000 g A.S./ha", "value": 30, "unit": "%"}]}
{"smiles": "O=C(O)c1nc(Cl)ccc1Cl", "note": "[(B2.4), 3,6-dichloropyridine-2-carboxylic acid]", "values": [{"measurement": "Damage to transgenic sugar beet", "setting": "transgenic sugar beet [5]; dose 50 g A.S./ha", "value": 0}, {"measurement": "Damage to transgenic sugar beet", "setting": "transgenic sugar beet [5]; dose 100 g A.S./ha", "value": 0}, {"measurement": "Damage to transgenic sugar beet", "setting": "transgenic sugar beet [5]; dose 200 g A.S./ha", "value": 0}, {"measurement": "Herbicidal action in % against Galium aparine", "setting": "Galium aparine [6]; dose 50 g A.S./ha", "value": 5, "unit": "%"}, {"measurement": "Herbicidal action in % against Galium aparine", "setting": "Galium aparine [6]; dose 100 g A.S./ha", "value": 35, "unit": "%"}, {"measurement": "Herbicidal action in % against Galium aparine", "setting": "Galium aparine [6]; dose 200 g A.S./ha", "value": 45, "unit": "%"}]}
{"smiles": "CCC/C(=N\\OCC)C1=C(O)CC(CC(C)SCC)CC1=O", "note": "(stereo not shown) [(B4.1), (E,Z)-2-(1-ethoxyimino-butyl)-5-[2-(ethylthio)propyl]-3-hydroxycyclohex-2-enone]", "values": [{"measurement": "Herbicidal action in % against Echinochloa crus-galli", "setting": "Echinochloa crus-galli; dose 105 g A.S./ha", "value": 35, "unit": "%"}, {"measurement": "Herbicidal action in % against Echinochloa crus-galli", "setting": "Echinochloa crus-galli; dose 210 g A.S./ha", "value": 73, "unit": "%"}, {"measurement": "Herbicidal action in % against Echinochloa crus-galli", "setting": "Echinochloa crus-galli; dose 315 g A.S./ha", "value": 85, "unit": "%"}, {"measurement": "Damage to transgenic sugar beet", "setting": "transgenic sugar beet [8]; dose 105 g A.S./ha", "value": 0}, {"measurement": "Damage to transgenic sugar beet", "setting": "transgenic sugar beet [8]; dose 210 g A.S./ha", "value": 0}, {"measurement": "Damage to transgenic sugar beet", "setting": "transgenic sugar beet [8]; dose 315 g A.S./ha", "value": 0}]}
{"smiles": "CCCC(=NOCC)C1=C(O)CC(C2CCCSC2)CC1=O", "note": "(stereo not shown) [(B4.2), 2-(1-ethoxyiminobutyl)-3-hydroxy-5-thian-3-ylcyclohex-2-enone]", "values": [{"measurement": "Herbicidal action in % against Echinochloa crus-galli", "setting": "Echinochloa crus-galli; dose 62.5 g A.S./ha", "value": 45, "unit": "%"}, {"measurement": "Herbicidal action in % against Echinochloa crus-galli", "setting": "Echinochloa crus-galli; dose 125 g A.S./ha", "value": 70, "unit": "%"}, {"measurement": "Herbicidal action in % against Echinochloa crus-galli", "setting": "Echinochloa crus-galli; dose 250 g A.S./ha", "value": 93, "unit": "%"}, {"measurement": "Damage to transgenic sugar beet", "setting": "transgenic sugar beet [8]; dose 62.5 g A.S./ha", "value": 0}, {"measurement": "Damage to transgenic sugar beet", "setting": "transgenic sugar beet [8]; dose 125 g A.S./ha", "value": 0}, {"measurement": "Damage to transgenic sugar beet", "setting": "transgenic sugar beet [8]; dose 250 g A.S./ha", "value": 0}]}
